{"source": "ChEMBL document CHEMBL3885881", "about": "“DrugMatrix”", "species": "Rattus norvegicus", "experiment": "DrugMatrix - Regimen: Daily Repeat", "format": "toxicity, organism-based, Sprague-Dawley", "design": "regimen Daily Repeat, gender Male, age 6-8 weeks", "details": "in vivo, po, route oral GAVAGE, vehicle .5 % CMC; for ABSOLUTE BASOPHIL / ABSOLUTE EOSINOPHIL / ABSOLUTE LYMPHOCYTE / ABSOLUTE MONOCYTE / ABSOLUTE SEGMENTED NEUTROPHIL / BASOPHIL / ERYTHROCYTE COUNT / HEMATOCRIT / HEMOGLOBIN / LYMPHOCYTE / MEAN CORPUSCULAR HEMOGLOBIN / MEAN CORPUSCULAR HEMOGLOBIN CONCENTRATION / MEAN CORPUSCULAR VOLUME / NEUTROPHIL / NUCLEATED RED BLOOD CELLS / PLATELET COUNT: tissue Blood; for ALANINE AMINOTRANSFERASE / ALKALINE PHOSPHATASE / ASPARTATE AMINOTRANSFERASE / BLOOD UREA NITROGEN / CHOLESTEROL / CREATINE PHOSPHOKINASE / CREATININE / GLUCOSE / LACTATE DEHYDROGENASE / LIPASE / PHOSPHORUS / POTASSIUM / SODIUM / TOTAL BILIRUBIN / TOTAL PROTEIN / CARBON DIOXIDE: tissue Plasma", "key": {"[1]": {"details": "0.06 mg/kg, 120 h, dose level Low, time 5 day"}, "[2]": {"details": "[…], 72 h, dose 0.25 mg/Kg, dose level High, time 3 day"}, "[3]": {"details": "[…], 120 h, dose 0.25 mg/Kg, dose level High, time 5 day"}}}
{"compound": "CC(=O)CC(c1ccccc1)c1c(O)c2ccccc2oc1=O", "note": "(stereo not given) [WARFARIN]", "values": [{"measurement": "ABSOLUTE BASOPHIL", "setting": "[1]", "result": 0, "unit": "CELLS/uL"}, {"measurement": "ABSOLUTE EOSINOPHIL", "setting": "[1]", "result": 123.33, "unit": "CELLS/uL"}, {"measurement": "ABSOLUTE LYMPHOCYTE", "setting": "[1]", "result": 12690, "unit": "CELLS/uL"}, {"measurement": "ABSOLUTE MONOCYTE", "setting": "[1]", "result": 175.33, "unit": "CELLS/uL"}, {"measurement": "ABSOLUTE SEGMENTED NEUTROPHIL", "setting": "[1]", "result": 1111.33, "unit": "CELLS/uL"}, {"measurement": "BASOPHIL", "setting": "[1]", "result": 0, "unit": "%"}, {"measurement": "ERYTHROCYTE COUNT", "setting": "[1]", "result": 5.59, "unit": "x10E6/uL"}, {"measurement": "HEMATOCRIT", "setting": "[1]", "result": 35.53, "unit": "%"}, {"measurement": "HEMOGLOBIN", "setting": "[1]", "result": 13.5, "unit": "G/DL"}, {"measurement": "LYMPHOCYTE", "setting": "[1]", "result": 90, "unit": "%"}, {"measurement": "MEAN CORPUSCULAR HEMOGLOBIN", "setting": "[1]", "result": 24.2, "unit": "pg"}, {"measurement": "MEAN CORPUSCULAR HEMOGLOBIN CONCENTRATION", "setting": "[1]", "result": 38, "unit": "G/DL"}, {"measurement": "MEAN CORPUSCULAR VOLUME", "setting": "[1]", "result": 63.67, "unit": "fL"}, {"measurement": "NEUTROPHIL", "setting": "[1]", "result": 8, "unit": "%"}, {"measurement": "NUCLEATED RED BLOOD CELLS", "setting": "[1]", "result": "0 /100WBC"}, {"measurement": "PLATELET COUNT", "setting": "[1]", "result": 1320.67, "unit": "x10E3/uL"}, {"measurement": "ALANINE AMINOTRANSFERASE", "setting": "[1]", "result": 47.33, "unit": "u/L"}, {"measurement": "ALKALINE PHOSPHATASE", "setting": "[1]", "result": 339.67, "unit": "u/L"}, {"measurement": "ASPARTATE AMINOTRANSFERASE", "setting": "[1]", "result": 76.33, "unit": "u/L"}, {"measurement": "BLOOD UREA NITROGEN", "setting": "[1]", "result": 16, "unit": "mg/dL"}, {"measurement": "CHOLESTEROL", "setting": "[1]", "result": 66.67, "unit": "mg/dL"}, {"measurement": "CREATINE PHOSPHOKINASE", "setting": "[1]", "result": 293.33, "unit": "u/L"}, {"measurement": "CREATININE", "setting": "[1]", "result": 0.14, "unit": "mg/dL"}, {"measurement": "GLUCOSE", "setting": "[1]", "result": 149, "unit": "mg/dL"}, {"measurement": "LACTATE DEHYDROGENASE", "setting": "[1]", "result": 203, "unit": "u/L"}, {"measurement": "LIPASE", "setting": "[1]", "result": 9.33, "unit": "u/L"}, {"measurement": "PHOSPHORUS", "setting": "[1]", "result": 13.2, "unit": "mg/dL"}, {"measurement": "POTASSIUM", "setting": "[1]", "result": 6.78, "unit": "MEQ/L"}, {"measurement": "SODIUM", "setting": "[1]", "result": 144.27, "unit": "MEQ/L"}, {"measurement": "TOTAL BILIRUBIN", "setting": "[1]", "result": 0.2, "unit": "mg/dL"}, {"measurement": "TOTAL PROTEIN", "setting": "[1]", "result": 6, "unit": "G/DL"}, {"measurement": "ABSOLUTE BASOPHIL", "setting": "[2]", "result": 0, "unit": "CELLS/uL"}, {"measurement": "ABSOLUTE EOSINOPHIL", "setting": "[2]", "result": 246.33, "unit": "CELLS/uL"}, {"measurement": "ABSOLUTE LYMPHOCYTE", "setting": "[2]", "result": 13716, "unit": "CELLS/uL"}, {"measurement": "ABSOLUTE MONOCYTE", "setting": "[2]", "result": 364, "unit": "CELLS/uL"}, {"measurement": "ABSOLUTE SEGMENTED NEUTROPHIL", "setting": "[2]", "result": 1007, "unit": "CELLS/uL"}, {"measurement": "BASOPHIL", "setting": "[2]", "result": 0, "unit": "%"}, {"measurement": "ERYTHROCYTE COUNT", "setting": "[2]", "result": 5.82, "unit": "x10E6/uL"}, {"measurement": "HEMATOCRIT", "setting": "[2]", "result": 37.73, "unit": "%"}, {"measurement": "HEMOGLOBIN", "setting": "[2]", "result": 14.07, "unit": "G/DL"}, {"measurement": "LYMPHOCYTE", "setting": "[2]", "result": 89.33, "unit": "%"}, {"measurement": "MEAN CORPUSCULAR HEMOGLOBIN", "setting": "[2]", "result": 24.2, "unit": "pg"}, {"measurement": "MEAN CORPUSCULAR HEMOGLOBIN CONCENTRATION", "setting": "[2]", "result": 37.33, "unit": "G/DL"}, {"measurement": "MEAN CORPUSCULAR VOLUME", "setting": "[2]", "result": 64.87, "unit": "fL"}, {"measurement": "NEUTROPHIL", "setting": "[2]", "result": 6.67, "unit": "%"}, {"measurement": "NUCLEATED RED BLOOD CELLS", "setting": "[2]", "result": "0 /100WBC"}, {"measurement": "PLATELET COUNT", "setting": "[2]", "result": 1397.33, "unit": "x10E3/uL"}, {"measurement": "ALANINE AMINOTRANSFERASE", "setting": "[2]", "result": 57, "unit": "u/L"}, {"measurement": "ALKALINE PHOSPHATASE", "setting": "[2]", "result": 354, "unit": "u/L"}, {"measurement": "ASPARTATE AMINOTRANSFERASE", "setting": "[2]", "result": 82, "unit": "u/L"}, {"measurement": "BLOOD UREA NITROGEN", "setting": "[2]", "result": 15.33, "unit": "mg/dL"}, {"measurement": "CARBON DIOXIDE", "setting": "[2]", "result": 25.67, "unit": "mmol/L"}, {"measurement": "CHOLESTEROL", "setting": "[2]", "result": 86, "unit": "mg/dL"}, {"measurement": "CREATINE PHOSPHOKINASE", "setting": "[2]", "result": 467.67, "unit": "u/L"}, {"measurement": "CREATININE", "setting": "[2]", "result": 0.18, "unit": "mg/dL"}, {"measurement": "GLUCOSE", "setting": "[2]", "result": 156, "unit": "mg/dL"}, {"measurement": "LACTATE DEHYDROGENASE", "setting": "[2]", "result": 145, "unit": "u/L"}, {"measurement": "LIPASE", "setting": "[2]", "result": 10.67, "unit": "u/L"}, {"measurement": "PHOSPHORUS", "setting": "[2]", "result": 13.7, "unit": "mg/dL"}, {"measurement": "POTASSIUM", "setting": "[2]", "result": 6.91, "unit": "MEQ/L"}, {"measurement": "SODIUM", "setting": "[2]", "result": 145.27, "unit": "MEQ/L"}, {"measurement": "TOTAL BILIRUBIN", "setting": "[2]", "result": 0.23, "unit": "mg/dL"}, {"measurement": "TOTAL PROTEIN", "setting": "[2]", "result": 5.93, "unit": "G/DL"}, {"measurement": "ABSOLUTE BASOPHIL", "setting": "[3]", "result": 0, "unit": "CELLS/uL"}, {"measurement": "ABSOLUTE EOSINOPHIL", "setting": "[3]", "result": 86.67, "unit": "CELLS/uL"}, {"measurement": "ABSOLUTE LYMPHOCYTE", "setting": "[3]", "result": 13093.33, "unit": "CELLS/uL"}, {"measurement": "ABSOLUTE MONOCYTE", "setting": "[3]", "result": 240.67, "unit": "CELLS/uL"}, {"measurement": "ABSOLUTE SEGMENTED NEUTROPHIL", "setting": "[3]", "result": 779.33, "unit": "CELLS/uL"}, {"measurement": "BASOPHIL", "setting": "[3]", "result": 0, "unit": "%"}, {"measurement": "ERYTHROCYTE COUNT", "setting": "[3]", "result": 5.78, "unit": "x10E6/uL"}, {"measurement": "HEMATOCRIT", "setting": "[3]", "result": 36.23, "unit": "%"}, {"measurement": "HEMOGLOBIN", "setting": "[3]", "result": 13.7, "unit": "G/DL"}, {"measurement": "LYMPHOCYTE", "setting": "[3]", "result": 92, "unit": "%"}, {"measurement": "MEAN CORPUSCULAR HEMOGLOBIN", "setting": "[3]", "result": 23.7, "unit": "pg"}, {"measurement": "MEAN CORPUSCULAR HEMOGLOBIN CONCENTRATION", "setting": "[3]", "result": 37.87, "unit": "G/DL"}, {"measurement": "MEAN CORPUSCULAR VOLUME", "setting": "[3]", "result": 62.63, "unit": "fL"}, {"measurement": "NEUTROPHIL", "setting": "[3]", "result": 5.67, "unit": "%"}, {"measurement": "NUCLEATED RED BLOOD CELLS", "setting": "[3]", "result": "0 /100WBC"}, {"measurement": "PLATELET COUNT", "setting": "[3]", "result": 1328.33, "unit": "x10E3/uL"}, {"measurement": "ALANINE AMINOTRANSFERASE", "setting": "[3]", "result": 45.33, "unit": "u/L"}, {"measurement": "ALKALINE PHOSPHATASE", "setting": "[3]", "result": 285, "unit": "u/L"}, {"measurement": "ASPARTATE AMINOTRANSFERASE", "setting": "[3]", "result": 79.67, "unit": "u/L"}, {"measurement": "BLOOD UREA NITROGEN", "setting": "[3]", "result": 17.33, "unit": "mg/dL"}, {"measurement": "CARBON DIOXIDE", "setting": "[3]", "result": 26.67, "unit": "mmol/L"}, {"measurement": "CHOLESTEROL", "setting": "[3]", "result": 69.67, "unit": "mg/dL"}, {"measurement": "CREATINE PHOSPHOKINASE", "setting": "[3]", "result": 518.33, "unit": "u/L"}, {"measurement": "CREATININE", "setting": "[3]", "result": 0.2, "unit": "mg/dL"}, {"measurement": "GLUCOSE", "setting": "[3]", "result": 156.33, "unit": "mg/dL"}, {"measurement": "LACTATE DEHYDROGENASE", "setting": "[3]", "result": 92.67, "unit": "u/L"}, {"measurement": "LIPASE", "setting": "[3]", "result": 8.67, "unit": "u/L"}, {"measurement": "PHOSPHORUS", "setting": "[3]", "result": 13.27, "unit": "mg/dL"}, {"measurement": "POTASSIUM", "setting": "[3]", "result": 6.55, "unit": "MEQ/L"}, {"measurement": "SODIUM", "setting": "[3]", "result": 147.93, "unit": "MEQ/L"}, {"measurement": "TOTAL BILIRUBIN", "setting": "[3]", "result": 0.17, "unit": "mg/dL"}, {"measurement": "TOTAL PROTEIN", "setting": "[3]", "result": 6.33, "unit": "G/DL"}]}
